ChEMBL document CHEMBL1153788, “Bioactive diterpene derivatives from the marine sponge Spongionella sp” (J Nat Prod, 2009)

Key:
K562 = experiment: Cytotoxicity against human K562 cells assessed as decrease in luminescence after 24 hrs by luminescent cell viability assay; assay type: functional, cell-based; details: K562, 24 h
PBMC = experiment: Cytotoxicity against human PBMC cells assessed as decrease in luminescence after 24 hrs by luminescent cell viability assay; assay type: cell-based

SMILES | IC50 (K562) [µM] | IC50 (PBMC) [µM]
CC(=O)O[C@@H]1O[C@H]2OC(=O)[C@H](C)C3=C([C@@]4(C)CCCC(C)(C)C4)CC[C@@H]1[C@H]32 | 2.3 | 4.5
CC(=O)O[C@H]1O[C@H]2O[C@H]3OC(=O)/C(=C\CC4(OC(C)=O)CCCC(C)(C)C4)[C@H]3[C@H]2[C@@H]1OC(C)=O (stereo partly specified) [GRACILIN J] | 15 | 30
CC(=O)O[C@H]1O[C@H]2O[C@H]3OC(=O)/C(=C\C4CCCC(C)(C)C4)[C@H]3[C@H]2[C@@H]1OC(C)=O (stereo partly specified) [GRACILIN K] | 8.5 | 9
